Data as given in patent US5516784A, “Anti-HIV (AIDS) agents” (Schering Corporation, priority 1994, dated 1996).
pIC50: −log10 of the molar value.

Target: T1, HIV1 protease (Human immunodeficiency virus type 1 group M subtype B, UniProt P04585)
Assay: Test 3: inhibition of proteolytic activity of HIV-1 protease by scintillation proximity assay (SPA)
Assay type: biochemical
Settings: IC50 >500 nM; read-out: Enzyme Assays (SPA) % inhibition
Source text: TEST 3-INHIBITION OF PROTEOLYTIC ACTIVITY OF HIV-1-PROTEASE AS DETERMINED BY SCINTILLATION […] ASSAY (SPA).
This is an alternative assay to test #1 and is used to determine the ability of compounds to inhibit the HIV1 protease activity. The SPA assay for HIV1 protease has been developed by Amersham Corporation, Arlington Heights, Ill., and is available for commercial use. In this system the substrate for HIV1 protease, AcN-(I^125)[…]SPA bead, is cleaved by the HIV1 protease at the Phe-Phe bond releasing the I^125 -labelled peptide fragment from the SPA bead. This event causes removal of detectable signal from the microsphere bead indicated by reduction in radioactivity (measured in CPM), which is proportional to the proteolytic activity. The substrate, and the HIV 1 protease were incubated in presence of synthetic compound in various dilutions at room temperature for 40 minutes, and the concentration of the compound required to inhibit the proteolytic activity by 50% (IC50) was determined.

inhibition at 0.5 µM | SMILES
46% | CCC(C)[C@H](NC(=O)c1ccc2ccccc2n1)C(=O)N[C@@H](Cc1ccccc1)[C@H](O)COc1ccccc1C(=O)NC(C)(C)C (stereo partly drawn) [Compound 38]
35% | CC(C)(C)NC(=O)c1ccccc1OC[C@H](O)[C@H](Cc1ccccc1)NC(=O)[C@H](CC(N)=O)NC(=O)c1nc2ccccc2nc1O [Compound 63]
36% | CC(C)(C)NC(=O)c1ccccc1OC[C@@H](O)[C@H](Cc1ccccc1)NC(=O)[C@H](CC(N)=O)NC(=O)c1nc2ccccc2nc1O [Compound 64]
36% | CC(C)(C)NC(=O)c1ccccc1OC[C@@H](O)[C@H](Cc1ccccc1)NC(=O)[C@H](CC(N)=O)NC(=O)c1cnc2nc(N)nc(O)c2n1 [Compound 68]

Same assay, conditions: SPA; room temperature, 40 minutes; read-out: Enzyme Assays (SPA) IC50

SMILES | pIC50
NC(=O)C[C@H](NC(=O)c1ccc2ccccc2n1)C(=O)N[C@@H](Cc1ccccc1)[C@H](O)CSC1CCCC1C(=O)Nc1ccccc1 (single isomer, unassigned) [Compound 15] | < 6.70
CC(C)(C)NC(=O)c1cccnc1OC[C@H](O)[C@H](Cc1ccccc1)NC(=O)[C@H](CC(N)=O)NC(=O)c1ccc2ccccc2n1 [Compound 6] | < 6.30
CC(C)(C)NC(=O)c1c(OC[C@@H](O)[C@H](Cc2ccccc2)NC(=O)[C@H](CC(N)=O)NC(=O)c2ccc3ccccc3n2)ccc2ccccc12 [Compound 10] | 6.96
NC(=O)C[C@H](NC(=O)c1ccc2ccccc2n1)C(=O)N[C@@H](Cc1ccccc1)[C@@H](O)CSC1CCCC1C(=O)Nc1ccccc1 (stereo partly drawn) [Compound 14] | < 6.70
NC(=O)C[C@H](NC(=O)c1ccc2ccccc2n1)C(=O)N[C@@H](Cc1ccccc1)[C@H](O)CSC1CCCC1C(=O)Nc1ccccc1 (stereo partly drawn) [Compound 21] | < 6.70
CC(C)(C)NC(=O)c1ccc(SC[C@H](O)[C@H](Cc2ccccc2)NC(=O)[C@H](CC(N)=O)NC(=O)c2ccc3ccccc3n2)cc1 [Compound 23] | < 6.70
CC(C)(C)NC(=O)c1cccc(SC[C@H](O)[C@H](Cc2ccccc2)NC(=O)[C@H](CC(N)=O)NC(=O)c2ccc3ccccc3n2)c1 [Compound 25] | < 6.70
CC(C)(C)NC(=O)c1ccccc1SC[C@@H](O)[C@H](Cc1ccccc1)NC(=O)[C@H](Cc1ccccc1)NC(=O)c1ccc2ccccc2n1 [Compound 34] | < 6.70
CCC(C)[C@H](NC(=O)c1ccc2ccccc2n1)C(=O)N[C@@H](Cc1ccccc1)[C@H](O)CSc1ccccc1C(=O)NC(C)(C)C (stereo partly drawn) [Compound 36] | 6.88
CN(C)C(=O)C[C@H](NC(=O)c1ccc2ccccc2n1)C(=O)N[C@@H](Cc1ccccc1)[C@H](O)CSc1ccccc1C(=O)NC(C)(C)C [Compound 42] | < 6.70
CC(C)(C)NC(=O)c1ccccc1OC[C@@H](O)[C@H](Cc1ccccc1)NC(=O)[C@H](CC(N)=O)NC(=O)c1cnc2ccccc2n1 [Compound 60] | 7.32
CC(C)(C)NC(=O)c1ccccc1OC[C@H](O)[C@H](Cc1ccccc1)NC(=O)[C@H](CC(N)=O)NC(=O)c1cc(O)c2ccccc2n1 [Compound 61] | 6.39
CC(C)(C)NC(=O)c1ccccc1OC[C@H](O)[C@H](Cc1ccccc1)NC(=O)[C@H](CC(N)=O)NC(=O)c1cnnc2ccccc12 [Compound 65] | 6.30
CC(C)(C)NC(=O)c1ccccc1OC[C@@H](O)[C@H](Cc1ccccc1)NC(=O)[C@H](CC(N)=O)NC(=O)c1cnnc2ccccc12 [Compound 66] | 6.91
CC(C)(C)NC(=O)c1ccccc1OC[C@@H](O)[C@H](CCc1ccccc1)NC(=O)[C@H](CC(N)=O)NC(=O)c1ccc2ccccc2n1 [Compound 76] | < 6.30
CCC(C)[C@H](NC(=O)OC(C)(C)C)C(=O)N[C@@H](Cc1ccccc1)[C@H](O)CSc1ccccc1C(=O)NC(C)(C)C (stereo partly drawn) [IN 7] | < 6.30

Further lines, results first:

pIC50 | SMILES
6.70 | NC(=O)C[C@H](NC(=O)c1ccc2ccccc2n1)C(=O)N[C@@H](Cc1ccccc1)[C@H](O)CSC1CCCC1C(=O)Nc1ccccc1 (single isomer, unassigned) [Compound 17]
6.55 | CC(C)(C)NC(=O)c1cc2ccccc2cc1OC[C@@H](O)[C@H](Cc1ccccc1)NC(=O)[C@H](CC(N)=O)NC(=O)c1ccc2ccccc2n1 [Compound 11]
6.64 | CC(C)(C)NC(=O)c1ccc2ccccc2c1OC[C@@H](O)[C@H](Cc1ccccc1)NC(=O)[C@H](CC(N)=O)NC(=O)c1ccc2ccccc2n1 [Compound 12]
< 6.70 | NC(=O)C[C@H](NC(=O)c1ccc2ccccc2n1)C(=O)N[C@@H](Cc1ccccc1)[C@@H](O)CSc1nc2ccccc2[nH]1 [Compound 22]
< 6.70 | CC(C)(C)NC(=O)c1ccc(SC[C@@H](O)[C@H](Cc2ccccc2)NC(=O)[C@H](CC(N)=O)NC(=O)c2ccc3ccccc3n2)cc1 [Compound 24]
< 6.70 | CC(C)(C)NC(=O)c1cccc(SC[C@@H](O)[C@H](Cc2ccccc2)NC(=O)[C@H](CC(N)=O)NC(=O)c2ccc3ccccc3n2)c1 [Compound 26]
< 6.70 | CC(C)(C)NC(=O)CCSC[C@@H](O)[C@H](Cc1ccccc1)NC(=O)[C@H](CC(N)=O)NC(=O)c1ccc2ccccc2n1 [Compound 28]
< 6.70 | NC(=O)C[C@H](NC(=O)c1ccc2ccccc2n1)C(=O)N[C@@H](Cc1ccccc1)[C@@H](O)CSc1ccccc1C(=O)NC12CC3CC(CC(C3)C1)C2 [Compound 29]
< 6.30 | CCC(C)[C@H](NC(=O)c1ccc2ccccc2n1)C(=O)N[C@@H](Cc1ccccc1)[C@H](O)COc1ccccc1C(=O)NC(C)(C)C (stereo partly drawn) [Compound 38]
< 6.70 | CCC(C)C(NC(=O)c1ccc2ccccc2n1)C(=O)N[C@@H](Cc1ccccc1)[C@H](O)CSc1ccccc1C(=O)NC(C)(C)C (stereo partly drawn) [Compound 39]
< 6.30 | CC(C)(C)NC(=O)c1ccccc1OC[C@H](O)[C@H](Cc1ccccc1)NC(=O)[C@H](CC(N)=O)NC(=O)c1nc2ccccc2nc1O [Compound 63]
< 6.30 | CC(C)(C)NC(=O)c1ccccc1OC[C@@H](O)[C@H](Cc1ccccc1)NC(=O)[C@H](CC(N)=O)NC(=O)c1nc2ccccc2nc1O [Compound 64]
< 6.30 | CC(C)(C)NC(=O)c1ccccc1OC[C@@H](O)[C@H](Cc1ccccc1)NC(=O)[C@H](CC(N)=O)NC(=O)c1cnc2nc(N)nc(O)c2n1 [Compound 68]
6.61 | Cc1c(C)c2c(c(C)c1O)CCC(C)(C(=O)N[C@@H](CC(N)=O)C(=O)N[C@@H](Cc1ccccc1)[C@@H](O)COc1ccccc1C(=O)NC(C)(C)C)O2 (stereo partly drawn) [Compound 71]
6.90 | CC(C)(C)NC(=O)c1ccccc1OC[C@@H](O)[C@H](Cc1ccccc1)NC(=O)[C@H](CC(N)=O)NC(=O)OCc1ccccc1 [IN 8]

Same assay, conditions: read-out: Enzyme Assays (SPA) IC50

pIC50 | SMILES
7.08 | CC(C)(C)NC(=O)c1ccccc1OC[C@H](O)[C@H](Cc1ccccc1)NC(=O)[C@H](CC(N)=O)NC(=O)c1ccc2c(c1)C(=O)c1ccccc1C2=O [Compound 69]
7.26 | CC(C)(C)NC(=O)c1ccccc1OC[C@@H](O)[C@H](Cc1ccccc1)NC(=O)[C@H](CC(N)=O)NC(=O)c1ccc2c(c1)C(=O)c1ccccc1C2=O [Compound 70]

SMILES | pIC50
CC(C)(C)NC(=O)c1ccccc1OC[C@H](O)[C@H](Cc1ccccc1)NC(=O)[C@H](CC(N)=O)NS(=O)(=O)c1ccc2ccccc2c1 [Compound 73] | 6.37

Target: T1, HIV1 protease
Assay: Test 1: inhibition of proteolytic activity of HIV-1 protease (HPLC)
Assay type: biochemical
Set-up: proteolytic activity of HIV-1 protease
Settings: HPLC; HIV Substrate III; read-out: Enzyme Assays (HPLC) IC50
Protocol: TEST I-INHIBITION OF PROTEOLYTIC ACTIVITY OF HIV-1-PROTEASE
The ability of compounds of the invention to inhibit the proteolytic activity of HIV-1 protease was determined by using the method of Louis, et al., Biochem. Biophys. Res. Comm. 159:87-94, (1989), which is herein incorporated by reference. In using the method of Louis et al., HIV Substrate III, His-Lys-Ala-Arg-VaI-Leu-pNO2 Phe-Glu-Ala-Nle-Ser-NH2 purchased from Bachem Bioscience, Inc. Philadelphia, Pa. was used in place of the nonapeptide substrate […]amide.

SMILES | pIC50
NC(=O)C[C@H](NC(=O)c1ccc2ccccc2n1)C(=O)N[C@@H](Cc1ccccc1)[C@@H](O)CSc1ncccn1 [Compound 1] | < 7.30
CCCCNC(=O)c1ccccc1S(=O)(=O)C[C@H](O)[C@H](Cc1ccccc1)NC(=O)[C@H](CC(N)=O)NC(=O)c1ccc2ccccc2n1 [Compound 9] | < 6.30
NC(=O)C[C@H](NC(=O)c1ccc2ccccc2n1)C(=O)N[C@@H](Cc1ccccc1)[C@@H](O)CSC1CCCC1C(=O)Nc1ccccc1 (stereo partly drawn) [Compound 16] | < 6.30
CC(C)(C)NC(=O)CCSC[C@H](O)[C@H](Cc1ccccc1)NC(=O)[C@H](CC(N)=O)NC(=O)c1ccc2ccccc2n1 [Compound 27] | < 6.30
CC(C)(C)NC(=O)c1ccccc1SC[C@H](O)[C@H](Cc1ccccc1)NC(=O)[C@@H]1CCCN1C(=O)c1ccc2ccccc2n1 [Compound 32] | < 7.30
CC(C)(C)NC(=O)c1ccccc1SC[C@H](O)[C@H](Cc1ccccc1)NC(=O)[C@H](Cc1ccccc1)NC(=O)c1ccc2ccccc2n1 [Compound 33] | < 6.30
CN(C)C(=O)C[C@H](NC(=O)c1ccc2ccccc2n1)C(=O)N[C@@H](Cc1ccccc1)[C@@H](O)CSc1ccccc1C(=O)NC(C)(C)C [Compound 41] | < 7.00
CSCC[C@H](NC(=O)c1ccc2ccccc2n1)C(=O)N[C@@H](Cc1ccccc1)[C@@H](O)CSc1ccccc1C(=O)NC(C)(C)C [Compound 44] | < 7.00

Next, values leading:

pIC50 | SMILES
< 6.30 | NC(=O)C[C@H](NC(=O)c1ccc2ccccc2n1)C(=O)N[C@@H](Cc1ccccc1)[C@@H](O)CSC1CCCC1C(=O)Nc1ccccc1 (stereo partly drawn) [Compound 18]
< 7.30 | NC(=O)C[C@H](NC(=O)c1ccc2ccccc2n1)C(=O)N[C@@H](Cc1ccccc1)[C@H](O)CSc1ccccc1C(=O)NC12CC3CC(CC(C3)C1)C2 [Compound 30]
< 7.00 | COc1ccc(C[C@H](NC(=O)c2ccc3ccccc3n2)C(=O)N[C@@H](Cc2ccccc2)[C@@H](O)CSc2ccccc2C(=O)NC(C)(C)C)cc1 [Compound 43]
< 7.00 | CC(C)(C)NC(=O)c1ccccc1S(=O)(=O)C[C@H](O)[C@H](Cc1ccccc1)NC(=O)[C@H](CCS(C)(=O)=O)NC(=O)c1ccc2ccccc2n1 [Compound 45]

Same assay, conditions: intermediate compound; read-out: IC50 in Test 1, Inhibition of Proteolytic Activity of HIV-1-Protease

pIC50 | SMILES
5.52 | CC(C)(C)NC(=O)c1ccccc1SCC(O)C(Cc1ccccc1)NC(=O)OC(C)(C)C (stereo not drawn)
